Earlier results on nine compounds are cited in patent publication US20030129222A1, “Liposomal imexon” (priority 2000, published 2003).

The conditions of this data set: cited from earlier work.
[1] abbreviates: single oral doses of about 0.6 mg/kg to about […].
The mark [2] stands for this setting: intravenous injection, after distribution.

Counter-ions that a name gives are not always drawn. Starred links: 1 amine or outer side, 2 acyl side, 3 side chain; linkers in the order of their positions; H or OH if unused. Positions of bridges follow the written chain, without caps; N, C: chain ends. Non-standard residues stand in square brackets, D forms with d. Residues, ends and D or L forms follow the SMILES beside them. Chains are numbered I, II in the order given. Actinocin(9to1) = Cc1c2oc3c(C)ccc(C(=O)[*:1])c3nc-2c(C(=O)[*:2])c(N)c1=O; NMeV = CN[C@H](C(=O)O)C(C)C; Sar = CNCC(=O)O

On to `COc1cccc2c1C(=O)c1c(O)c3c(c(O)c1C2=O)C[C@@](O)(C(C)=O)C[C@@H]3O[C@H]1C[C@H](N)[C@H](O)[C@H](C)O1` [Daunorubicin, 5,12-Naphthacenedione, (8S-cis)-8-acetyl-10-[(3-amino-2,3,6-trideoxy-a-L-lyxo-hexanopyranosyl)oxy]-7,8,9,10-tetrahydro-6,8,11-trihydroxy-10-methoxy-, hydrochloride], for which, under “in vivo”, the “oral absorption” value is “poor” and the half-life of elimination result is given as “about 19 hours”.
`Cc1c2oc3c(C)ccc(C(=O)N[C@@H]4C(=O)N[C@H](C(C)C)C(=O)N5CCC[C@H]5C(=O)N(C)CC(=O)N(C)[C@@H](C(C)C)C(=O)O[C@@H]4C)c3nc-2c(C(=O)N[C@@H]2C(=O)N[C@H](C(C)C)C(=O)N3CCC[C@H]3C(=O)N(C)CC(=O)N(C)[C@@H](C(C)C)C(=O)O[C@@H]2C)c(N)c1=O` [Actinomycin D] (I: T[dV]P[Sar][NMeV] / II: T[dV]P[Sar][NMeV]; ester I:1-I:C, II:1-II:C; linker I:N-II:N via Actinocin(9to1)): for the setting “in vivo”, the “dose excreted intact into the bile” value is “Half”, the “dose excreted intact into the urine” value is recorded as 10%, the half-life result was “about 36 hours” and the “passage of the blood-brain barrier” value is given as “does not pass the blood-brain barrier”.
Consider `COc1cccc2c1C(=O)c1c(O)c3c(c(O)c1C2=O)C[C@@](O)([C@H](C)O)C[C@@H]3O[C@H]1C[C@H](N)[C@H](O)[C@H](C)O1` [daunorubicinol], for which, where the note is “metabolite of daunorubicin”, the “half-life of active metabolite” value is “about 27 hours”.
Regarding `N.N.[Cl][Pt][Cl]` [Cisplatin], the “oral absorption” value (in vivo) is “not absorbed orally”.
In the case of `O=NN(CCCl)C(=O)NC1CCCCC1` [Lomustine, 1-(2-chloro-ethyl)-3-cyclohexyl-1 nitrosourea], the “radioactivity excreted in the form of degradation products within 24 hours” value (oral radioactive lomustine, about 30 mg/m^2 to 100 mg/m^2) was “about half”.
For `CC[C@]1(O)C[C@H]2CN(CCc3c([nH]c4ccccc34)[C@@](C(=O)OC)(c3cc4c(cc3OC)N(C=O)[C@H]3[C@@](O)(C(=O)OC)[C@H](OC(C)=O)[C@]5(CC)C=CCN6CC[C@]43[C@@H]65)C2)C1` [Vincristine], the “oral absorption” value (in vivo) was “Unpredictable absorption”. Further, the terminal half-life result (plasma) was “about 24 hours”.
Turning to `COc1cccc2c1C(=O)c1c(O)c3c(c(O)c1C2=O)C[C@@](O)(C(=O)CO)C[C@@H]3O[C@H]1C[C@H](N)[C@H](O)[C@H](C)O1` [Doxorubicin, 5,12-Naphthacenedione, (8s-cis)-10-[(3-amino-2,3,6-trideoxy-a-L-lyxo-hexopyranosyl)oxy]-7,8,9,10-tetrahydro-6,8,11-trihydroxy-8-(hydroxyacetyl)-1-methoxy-hydrochloride], under “in vivo”, the “oral absorption” value is listed as “absorbed poorly” and the elimination half-life entry is given as “about 30 hours”.
With `O=C(O)CCCc1ccc(N(CCCl)CCCl)cc1` [Chlorambucil, 4-[bis(2-chlorethyl)amino] benzenebutanoic acid], for the setting “in vivo”, the “oral absorption” value is “rapidly and completely absorbed”. Further, under setting [1], the “terminal half-life of the parent drug” value is listed as “about 1.5 hours” and the “time to peak plasma chlorambucil levels” value is “one”.
`CC[C@]1(O)C[C@@H]2CN(CCc3c([nH]c4ccccc34)[C@@](C(=O)OC)(c3cc4c(cc3OC)N(C)[C@H]3[C@@](O)(C(=O)OC)[C@H](OC(C)=O)[C@]5(CC)C=CCN6CC[C@]43[C@@H]65)C2)C1` [Vinblastine]: where the note is “in vivo”, the “oral absorption” value is reported as “Unpredictable absorption” and the “dose recovered in the feces after biliary excretion” value was “about 10%”. For the same compound, under setting [2], the “plasma half-life, first” value is on record as “approximately 1 hours” and the “plasma half-life, second” value is roughly 20 h.
